Earlier results on three compounds are cited in patent publication US9526803B2, “Diagnostic chewing gum for pathogens” (Julius-Maximilians-Universitaet Wuerzburg, priority 2012, dated 2016).

Counter-ions that a name gives are not always drawn.

Series [1] has as its system human tongue. To be noted: average human.
Series [2] concerns gustatory system. The conditions noted are these: reference for calibration of volunteers; bitter value 10,000 = 1 g in 10,000 mL water barely recognized as bitter.

Turning to `C=C[C@H]1C[N@@]2CC[C@H]1C[C@H]2[C@H](O)c1ccnc2ccc(OC)cc12` [Quinine sulfate], the “concentration sensed down to (taste recognition threshold)” value in series [1] is 0.0004 mM.
As to `C=C[C@H]1C[N@@]2CC[C@H]1C[C@H]2[C@H](O)c1ccnc2ccc(OC)cc12` [quinine-HCl], in series [2], the bitter value is reported as 200,000.
Turning to `O=C1NS(=O)(=O)c2ccccc21` [saccharin], in series [1], the “concentration sensed down to (taste recognition threshold)” value is reported as 0.02 mM.
